Results: article PMC5234269 (Chemical communications (Cambridge, England), 2015)
Values joined by “and” are separate entries in the source; they are usually repeats but may differ in a detail not shown here. Equal values may be shown once. Read-outs that look alike come from different tables or passages of the source. One block for each compound: values may come before it.

Experiments:
D3R = D3R (Homo sapiens, UniProt P35462); assay: Radioligand binding to D3R with and without Na+
D2R = D2R (Homo sapiens, UniProt P14416); type: binding
[1] = test system: Tyr(7.43) to Cys mutant receptor; details: mutant vs wild type; cited from earlier work

Sequence of D2R (P14416 whole entry): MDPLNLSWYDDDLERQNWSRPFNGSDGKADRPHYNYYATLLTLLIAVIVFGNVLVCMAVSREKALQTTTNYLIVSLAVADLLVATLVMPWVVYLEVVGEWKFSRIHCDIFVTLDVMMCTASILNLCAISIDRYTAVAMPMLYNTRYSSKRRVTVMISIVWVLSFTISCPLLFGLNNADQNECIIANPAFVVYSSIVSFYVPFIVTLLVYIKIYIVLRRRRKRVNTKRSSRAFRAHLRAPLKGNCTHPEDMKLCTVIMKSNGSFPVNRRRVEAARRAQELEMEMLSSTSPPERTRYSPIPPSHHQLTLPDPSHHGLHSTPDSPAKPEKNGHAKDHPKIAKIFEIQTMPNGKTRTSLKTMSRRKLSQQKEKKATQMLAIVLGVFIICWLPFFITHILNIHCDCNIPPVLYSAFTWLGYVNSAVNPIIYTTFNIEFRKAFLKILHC
Sequence of D3R (P35462 whole entry): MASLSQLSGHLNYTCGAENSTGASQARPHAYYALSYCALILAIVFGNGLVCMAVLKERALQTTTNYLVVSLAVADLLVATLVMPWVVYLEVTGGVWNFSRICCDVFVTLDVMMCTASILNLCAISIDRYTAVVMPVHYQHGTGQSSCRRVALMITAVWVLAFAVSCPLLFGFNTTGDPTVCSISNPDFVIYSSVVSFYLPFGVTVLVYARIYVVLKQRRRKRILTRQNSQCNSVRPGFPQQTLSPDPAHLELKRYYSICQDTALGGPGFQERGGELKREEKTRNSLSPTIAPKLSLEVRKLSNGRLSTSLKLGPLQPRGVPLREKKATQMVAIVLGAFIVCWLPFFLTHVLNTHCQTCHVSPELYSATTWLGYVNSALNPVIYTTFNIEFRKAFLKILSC

effect of Na+ on binding to the D3R (D3R): increased | increase of affinity for the D2R in the presence of Na+ (D2R): ~ 3 fold | Ki (D2R; Ki): 0.67 nM and 0.27 nM
SMILES: CCc1cc(Cl)c(OC)c(C(=O)NC[C@@H]2CCCN2CC)c1O [eticlopride]

SMILES: CN1CN(c2ccccc2)C2(CCN(CCCC(=O)c3ccc(F)cc3)CC2)C1=O [methylspiperone]
decrease of binding by mutation of Tyr(7.43) to Cys [1]: 3 fold

SMILES: O=C(CCCN1CCC2(CC1)C(=O)NCN2c1ccccc1)c1ccc(F)cc1 [spiperone]
effect of presence or absence of Na+ on affinity for the D2R (D2R): does not affect

SMILES: CCN1CCCC1CNC(=O)c1cc(S(N)(=O)=O)ccc1OC (stereo not drawn) [sulpiride]
effect of Na+ on binding to the D3R (D3R; result in words, Fig. S2): increased | decrease of binding by mutation of Tyr(7.43) to Cys [1]: 185 fold | increase of affinity for the D2R in the presence of Na+ (D2R; +Na+ vs -Na+): ~ 23 fold

decrease of affinity for the D2R in the presence of Na+ (D2R; +Na+ vs -Na+): ~ 7 fold
SMILES: CN(C)CCOC1=Cc2ccccc2Sc2ccc(Cl)cc21 [zotepine]
